Assay results from patent publication US8486948B2, “Piperazinodihydrothienopyrimidine derivatives” (Boehringer Ingelheim International GmbH, priority 2007, dated 2013).
Where a name gives a salt, the structure may show the parent alone.

Molecular target: PDE4B (Homo sapiens, UniProt Q07343)
Assay: Scintillation Proximity (SPA) assay, inhibition of PDE4B at 1 μM
Assay type: biochemical
Details: Table A; test substance 1 μM; one hour incubation with [H3]-cAMP at 30° C.
Procedure: The inhibitions (in %) at 1 μM of the individual Example substances are included in the following Tables of Examples and were determined as follows:
The Scintilation Proximity (SPA) Assays (GE Healthcare, No. TRKQ7090) make use of the different affinities of cyclic 3″-5″-adenosine monophosphate (cAMP, low affinity) and linear 5′-adenosine monophosphate (AMP, high affinity) for yttrium silicate scintillator beads. The cAMP specific phosphodiesterase (PDE) PDE4B cleaves the 3′-phosphoester bond of the tritium-labelled [H3]-cAMP to form the [H3]-5′-AMP. Because of its higher affinity for the scintillator beads this [H3]-AMP accumulates on the beads and causes scintillation events (flashes of light) which are measured in a Wallac Microbeta Scintillation Counter.
The test starts with one hour's incubation of [H3]-cAMP with the PDE4B enzyme in assay buffer at 30° C., once with the Example substance that is to be tested (in a concentration of 1 μM) and once without the Example substance that is to be tested. After this incubation the reaction is stopped by the addition of the beads. The beads are given an opportunity to settle over the next 45 minutes, then they are measured in the Scintillation Counter. If the substance is capable of inhibiting the enzymatic activity of the PDE4B, less [H3]-AMP is formed during the incubation phase and fewer scintillation events can be measured.

Chain of PDE4B (Q07343 whole entry, species assumed): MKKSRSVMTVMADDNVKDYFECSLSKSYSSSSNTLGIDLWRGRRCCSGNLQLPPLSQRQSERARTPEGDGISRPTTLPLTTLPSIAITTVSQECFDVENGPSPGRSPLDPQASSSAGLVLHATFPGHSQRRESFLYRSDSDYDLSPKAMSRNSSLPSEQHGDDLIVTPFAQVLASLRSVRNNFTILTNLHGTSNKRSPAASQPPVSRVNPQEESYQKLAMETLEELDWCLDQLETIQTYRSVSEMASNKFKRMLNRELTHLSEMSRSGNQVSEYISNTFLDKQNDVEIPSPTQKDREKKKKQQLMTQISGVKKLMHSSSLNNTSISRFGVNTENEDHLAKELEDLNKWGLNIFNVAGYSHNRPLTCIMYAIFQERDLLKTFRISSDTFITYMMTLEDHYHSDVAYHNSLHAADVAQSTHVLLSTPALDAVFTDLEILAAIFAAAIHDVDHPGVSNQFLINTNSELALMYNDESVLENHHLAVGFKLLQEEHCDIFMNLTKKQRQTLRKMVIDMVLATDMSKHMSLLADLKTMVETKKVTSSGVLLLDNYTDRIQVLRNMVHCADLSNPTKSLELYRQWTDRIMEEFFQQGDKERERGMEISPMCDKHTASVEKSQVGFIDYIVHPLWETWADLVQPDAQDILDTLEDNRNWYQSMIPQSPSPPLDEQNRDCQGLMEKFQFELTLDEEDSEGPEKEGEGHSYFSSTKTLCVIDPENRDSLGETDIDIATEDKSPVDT

SMILES	inhibition at 1 µM
[O-][S+]1CCc2nc(N3CC4CC3CN4c3ccc(F)cc3)nc(NC3CCOCC3)c21 (stereo not drawn) [Example 26]	94%
C[C@H]1CN(c2ccc(Cl)cc2)CCN1c1nc2c(c(NC3CCOCC3)n1)[S+]([O-])CC2 (stereo partly drawn) [Example 4]	95%
O=C1CN(c2nc3c(c(NC4(CO)CC4)n2)[S+]([O-])CC3)CCN1c1ccc(Br)cc1 (stereo not drawn) [Example 11]	90%
[O-][S+]1CCc2nc(N3CC4CC3CN4c3ccc(Cl)cc3)nc(NC3CCOCC3)c21 (stereo not drawn) [Example 6]	95%

Same assay, conditions: Table C; test substance 1 μM; one hour incubation with [H3]-cAMP at 30° C.

SMILES	inhibition at 1 µM
[O-][S+]1CCc2nc(N3CCn4cnnc4C3)nc(Nc3cccc(F)c3)c21 (stereo not drawn) [Example 41, [2-(5,6-DIHYDRO-8H-[1,2,4]TRIAZOLO[4,3-A]PYRAZIN-7-YL)-5-OXO-6,7-DIHYDRO-5H-5λ^4-THIENO[3,2-D]PYRIMIDIN-4-YL]-(3-FLUOROPHENYL)-AMINE TRIFLUOROACETATE]	90%
[O-][S+]1CCc2nc(N3CCn4cnnc4C3)nc(NC3(CO)CC3)c21 (stereo not drawn) [Example 33, {1-[2-(5,6-DIHYDRO-8H-[1,2,4]TRIAZOLO[4,3-A]PYRAZIN-7-YL)-5-OXO-6,7-DIHYDRO-5H-5λ^4-THIENO[3,2-D]PYRIMIDIN-4-YLAMINO]-CYCLOPROPYL}-METHANOL TRIFLUORACETATE]	75%
CCOC(=O)c1cn2c(n1)CN(c1nc3c(c(NC4CCOCC4)n1)[S+]([O-])CC3)CC2 (stereo not drawn) [Example 34]	95%
[O-][S+]1CCc2nc(N3CCn4c(nnc4-c4ccc(F)cc4)C3)nc(Nc3cccc(F)c3)c21 (stereo not drawn) [Example 39, (3-fluorophenyl)-{2-[3-(4-fluorophenyl)-5,6-dihydro-8H-[1,2,4]triazolo[4,3-a]pyrazin-7-yl]-5-oxo-6,7-dihydro-5H-5λ^4-thieno[3,2-d]pyrimidin-4-yl}-amine]	95%

Same assay, conditions: Table D; test substance 1 μM; one hour incubation with [H3]-cAMP at 30° C.

SMILES	inhibition at 1 µM
CN(C(=O)c1cn2c(n1)CN(c1nc3c(c(NC4CCOCC4)n1)[S+]([O-])CC3)CC2)C1CC1 (stereo not drawn) [Example 50]	93%
